This is an account of results in patent publication US6413517B1, “Identification of broadly reactive DR restricted epitopes” (Epimmune, Inc., priority 1997, dated 2002).

The target of one assay is T1, DRB1*0701 (DR7) (Homo sapiens, UniProt P01903+P01911, A100R/A102G/A103Q/D57E/D86V/E43K/F76Y/K127E/L162R/M171V/P40G/Q125H/Q99D/R33Q/R42Y/R54Q/S133A/S66F/T210M/V115G/Y107V/Y59L/Y89S).
T1 construct: Epstein-Barr virus (EBV) transformed homozygous cell lines were used as sources; endogenous in cells; host or cells: PITOUT (EBV-transformed homozygous B cell line)
Briefly: biochemical. It counts as binding. To be noted: Binding Capacity (IC 50% nM) DR1,4,7 DR7.

Assay [1] deals with T2, DRB1*0301 (DR3w17) (Homo sapiens, UniProt P01903+P01911, A100K/A102G/A103R/A169T/F55Y/I96L/K41T/L162R/M171V/P40S/Q125H/Q178H/Q39Y/R42S/S66N/T106N/T262R/W38E/Y61H). To be noted: read-out: Binding Capacity (IC 50% nM) Other Alleles DR3.
A further assay concerns the target T3, DRB1*1302 (DR6w19) (Homo sapiens, UniProt P01903+P01911, A100E/A169T/K41T/L162R/M171V/P40S/Q125H/Q178H/Q39Y/Q99D/R42S/S66N/T262R/V115G/W38E/Y61H).
T3 construct: Epstein-Barr virus (EBV) transformed homozygous cell lines were used as sources; the source of Class II molecules the EBV transformed homozygous cell line H0301; endogenous in cells; host or cells: H0301 (EBV-transformed homozygous B cell line)
Briefly: biochemical. To be noted: Binding Capacity (IC 50% nM) Other Alleles DR6w19. It counts as binding.

The target of a further assay is T4, DRB1*1201 (DR5w12) (Homo sapiens, UniProt P01903+P01911, A100R/A169T/D57E/D86V/F55L/H45Y/K41T/L162R/M171V/P40S/Q125H/Q178H/Q39Y/Q99D/R42G/S66L/T262R/V114A/V67L/W38E/Y59H/Y61H/Y89S).
T4 construct: Epstein-Barr virus (EBV) transformed homozygous cell lines were used as sources; endogenous in cells; host or cells: Herluf (EBV-transformed homozygous B cell line)
Briefly: biochemical. It counts as binding.

A further assay addresses T5, DRB1*0901 (DR9) (Homo sapiens, UniProt P01903+P01911, A100R/A103E/D57H/D86V/F55Y/F60I/F76Y/I96F/K127E/L162R/M171V/P40D/Q125H/Q99R/R33Q/R42F/S133A/S66N/T210M/V115G/W38K/Y107V/Y59G/Y89S).
T5 construct: Epstein-Barr virus (EBV) transformed homozygous cell lines were used as sources; endogenous in cells
Briefly: biochemical. It counts as binding.

The target of another assay is T6, DRB1*1501 (DR2w2b) (Homo sapiens, UniProt P01903+P01911).
T6 construct: expressed in transfected cells; host or cells: transfected fibroblasts L466.1
Briefly: biochemical. It counts as binding. To be noted: Binding Capacity (IC 50% nM) Other Alleles DR2w2b.

A further assay deals with T7, DRB5*0101 (DR2w2a) (Homo sapiens, UniProt P01903+Q30154).
T7 construct: Epstein-Barr virus (EBV) transformed homozygous cell lines were used as sources; endogenous in cells; host or cells: GM3107 (EBV-transformed homozygous B cell line)
The assay can be described thus: biochemical. To be noted: read-out: Binding Capacity (IC 50% nM) Other Alleles DR2w2a. It counts as binding.

A further assay deals with T8, DRB1*0401 (DR4w4) (Homo sapiens, UniProt P01903+P01911, A100K/A169T/F76Y/I96L/K127E/L162R/M171V/N62H/P40V/Q125Y/R42H/S133A/S149N/S66Y/V115G/V209L/W38E).
T8 construct: Epstein-Barr virus (EBV) transformed homozygous cell lines were used as sources; endogenous in cells; host or cells: PREISS (EBV-transformed homozygous B cell line)
Briefly: biochemical. It counts as binding.

The next assay deals with T9, DRB1*0802 (DR8w2) (Homo sapiens, UniProt P01903+P01911, A100R/A103L/A169T/F76Y/H45Y/I96F/K41T/L162R/M171V/P40S/Q125H/Q178H/Q39Y/Q99D/R218S/R42G/S66Y/V115G/W38E).
T9 construct: Epstein-Barr virus (EBV) transformed homozygous cell lines were used as sources; endogenous in cells; host or cells: OLL (EBV-transformed homozygous B cell line)
Briefly: biochemical. It counts as binding.

A further assay addresses T10, DRB1*0405 (DR4w15) (Homo sapiens, UniProt P01903+P01911, A100R/A169T/D86S/F76Y/I96L/K127E/L162R/M171V/N62H/P40V/Q125Y/R42H/S133A/S149N/S66Y/V115G/V209L/W38E).
T10 construct: Epstein-Barr virus (EBV) transformed homozygous cell lines were used as sources; endogenous in cells; host or cells: KT3 (EBV-transformed homozygous B cell line)
Briefly: biochemical. It counts as binding.

The target of assay [2] is T2, DRB1*0301 (DR3w17). Briefly: biochemical. To be noted: Binding Capacity (IC50% nM) DR3.
The target of another assay is T11, DRB1*1101 (DR5w11) (Homo sapiens, UniProt P01903+P01911, A100R/A169T/A87E/I96F/K41T/L162R/M171V/P40S/Q125H/Q178H/Q39Y/Q99D/R42S/S66Y/T262R/V115G/W38E).
T11 construct: Epstein-Barr virus (EBV) transformed homozygous cell lines were used as sources; endogenous in cells; host or cells: SWEIG (EBV-transformed homozygous B cell line)
T11 sequence (P01903 26-254, other chains not shown): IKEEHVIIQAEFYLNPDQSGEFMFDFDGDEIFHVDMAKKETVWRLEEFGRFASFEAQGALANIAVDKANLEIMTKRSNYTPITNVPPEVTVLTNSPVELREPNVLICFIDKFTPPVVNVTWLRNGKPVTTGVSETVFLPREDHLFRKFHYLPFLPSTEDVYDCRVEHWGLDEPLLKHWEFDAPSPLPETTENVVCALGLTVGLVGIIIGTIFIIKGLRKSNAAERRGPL
Briefly: biochemical. It counts as binding.

The target in a further assay is T12, DRB1*0101 (DR1) (Homo sapiens, UniProt P01903+P01911, A100R/D57E/F55L/F60I/F76Y/I96L/L162R/M171V/P40L/Q125E/R42F/V115G/Y59C).
T12 construct: Epstein-Barr virus (EBV) transformed homozygous cell lines were used as sources; endogenous in cells; host or cells: LG2 (EBV-transformed homozygous B cell line)
Briefly: biochemical. It counts as binding. To be noted: Binding Capacity (IC 50% nM) DR1,4,7 DRB1.

Where [3] appears, read: Binding Capacity (IC50% nM) DR5w12.
[4] abbreviates: read-out: Binding Capacity (IC 50% nM) Other Alleles DR5w12.
Setting [5] is: read-out: Binding Capacity (IC 50% nM) DR1,4,7 DR4w4.
[6] abbreviates: Binding Capacity (IC50% nM) DR8w2.
Where [7] appears, read: read-out: Binding Capacity (IC 50% nM) Other Alleles DR8w2.
Setting [8] is: read-out: Binding Capacity (IC 50% nM) Other Alleles DR4w15.
[9] abbreviates: Binding Capacity (IC50% nM) DR5w11.
[10] abbreviates: read-out: Binding Capacity (IC 50% nM) Other Alleles DR5w11.

Read-outs that look alike come from different tables or passages of the source. Where only a bound is given, the exact number is not on record here.

With `CC[C@H](C)[C@H](NC(=O)[C@H](CC(=O)O)NC(=O)[C@H](CC(C)C)NC(=O)[C@@H](NC(=O)CNC(=O)[C@@H](NC(=O)[C@@H](NC(=O)[C@@H](NC(=O)[C@@H](NC(=O)[C@H](C)NC(=O)[C@H](CC(C)C)NC(=O)[C@@H](NC(=O)[C@H](CC(N)=O)NC(=O)[C@H](CO)NC(=O)[C@H](CC(C)C)NC(=O)[C@@H](N)CC(N)=O)C(C)C)[C@@H](C)O)[C@@H](C)CC)[C@@H](C)O)[C@@H](C)O)C(C)C)C(=O)O` [Peptide 1136.24], the IC50 at DRB1*0701 (DR7) is less than 1000 nM; at DRB1*0301 (DR3w17) [1], greater than 1000 nM; at DRB1*1302 (DR6w19), less than 1000 nM; at DRB1*1201 (DR5w12) (setting [3]) it was greater than 10000 nM; on DRB1*1201 (DR5w12) (setting [4]), greater than 1000 nM; at DRB1*0901 (DR9) (Binding Capacity (IC50% nM) DR9), greater than 10000 nM. Moreover, the IC50 is greater than 1000 nM at DRB1*0901 (DR9) (read-out: Binding Capacity (IC 50% nM) Other Alleles DR9); less than 1000 nM at DRB1*1501 (DR2w2b); greater than 1000 nM at DRB5*0101 (DR2w2a); greater than 1000 nM on DRB1*0401 (DR4w4) (setting [5]); greater than 10000 nM at DRB1*0802 (DR8w2) (setting [6]); greater than 1000 nM at DRB1*0802 (DR8w2) (setting [7]). Also, the IC50 is greater than 1000 nM on DRB1*0405 (DR4w15) (setting [8]); greater than 10000 nM at DRB1*0301 (DR3w17) [2]; greater than 10000 nM on DRB1*1101 (DR5w11) (setting [9]); greater than 1000 nM at DRB1*1101 (DR5w11) (setting [10]); less than 1000 nM on DRB1*0101 (DR1).

In the case of `CC[C@H](C)[C@H](NC(=O)[C@H](CO)NC(=O)[C@H](CO)NC(=O)[C@H](CC(N)=O)NC(=O)[C@@H](NC(=O)[C@@H](NC(=O)[C@H](CC(N)=O)NC(=O)[C@@H](N)Cc1ccccc1)C(C)C)C(C)C)C(=O)NCC(=O)N[C@@H](CC(C)C)C(=O)N[C@H](C(=O)N[C@@H](CCSC)C(=O)N[C@H](C(=O)N[C@@H](CC(C)C)C(=O)N[C@@H](CO)C(=O)O)C(C)C)[C@@H](C)CC` [Peptide 27.384], the IC50 is greater than 1000 nM on DRB1*0301 (DR3w17) [1]; greater than 10000 nM at DRB1*1201 (DR5w12) (setting [3]); greater than 1000 nM at DRB1*1201 (DR5w12) (setting [4]); greater than 10000 nM at DRB1*0401 (DR4w4) (Binding Capacity (IC50% nM) DR4w4); greater than 1000 nM at DRB1*0401 (DR4w4) (setting [5]); greater than 10000 nM on DRB1*0802 (DR8w2) (setting [6]). The IC50 at DRB1*0802 (DR8w2) (setting [7]) was greater than 1000 nM; at DRB1*0405 (DR4w15) (Binding Capacity (IC50% nM) DR4w15), greater than 10000 nM; on DRB1*0405 (DR4w15) (setting [8]), greater than 1000 nM; at DRB1*0301 (DR3w17) [2], greater than 10000 nM; on DRB1*1101 (DR5w11) (setting [9]) it was greater than 10000 nM; on DRB1*1101 (DR5w11) (setting [10]), greater than 1000 nM.
